In the Bradley open melting point set (2014):

SMILES | melting point
Cc1ccc(C)c(/C=C/c2ccc(-c3ccc(/C=C/c4cc(C)ccc4C)cc3)cc2)c1 [4,4'-bis(2,5-dimethylstyryl)biphenyl] | 198 °C
CC(=O)Oc1ccc(-c2ccc(OC(C)=O)cc2)cc1 [4,4'-diacetoxybiphenyl] | 164 °C
O=C(c1ccc(F)cc1)c1ccc(F)cc1 [4,4'-difluorobenzophenone] | 108 °C
Cc1ccc(-c2ccc(C)cc2)cc1 [4,4'-dimethylbiphenyl] | 121 °C
O=C(CC(=O)C(F)(F)F)c1ccco1 [4,4,4-trifluoro-1-(2-furyl)-1,3-butanedione] | 21 °C
CC1(C)C(=O)OOC1=O [4,4-dimethyl-1,2-dioxolane-3,5-dione] | 45 °C
O=C1OC(=O)c2c(Cl)c(Cl)c(Cl)c(Cl)c21 [4,5,6,7-Tetrachloro-2-benzofuran-1,3-dione] | 256 °C
Brc1ccnc(-c2ccc(Br)nc2)c1 [4,6'-dibromo-2,3'-bipyridine] | 129 °C
CC1=CC(C)=NC2N=NC(N)=C12 (configuration not stated) [4,6-Dimethyl-2H-pyrazolo[3,4-b]pyridin-3-amine] | 280 °C
Nc1c(Br)cc(Br)c(Cl)c1Cl [4,6-dibromo-2,3-dichloroaniline] | 97 °C
Oc1cc(O)c(Cl)cc1Cl [4,6-dichlororesorcinol] | 115 °C
C1=NN=C2CSCC12 (configuration not stated) [4,6-dihydro-1H-thieno[3,4-c]pyrazole] | 133 °C
Clc1ccc2c(Cl)ccnc2c1 [4,7-dichloroquinoline] | 85 °C
CC(C)(C)C(=O)Nc1ccncc1 [4-(2,2,2-trimethylacetamido)pyridine] | 136 °C
CC(CC(=O)O)c1ccc(C(=O)O)cc1 (configuration not stated) [4-(2-carboxy-1-methylethyl)benzoic acid] | 225 °C
O=C(O)CCc1ccc(B(O)O)cc1 [4-(2-carboxyethyl)benzeneboronic acid] | 147 °C
OCCN1CCOCC1 [4-(2-hydroxyethyl)morpholine] | 2 °C
Nc1ccc(-c2ccc3nn(-c4ccccc4)nc3c2)cc1 [4-(2-phenyl-2H-benzotriazol-5-yl)aniline] | 143 °C
Oc1ccc(-c2nccs2)cc1 [4-(2-thiazolyl)phenol] | 164 °C
O=C(c1ccncc1)c1ccc(Cl)cc1 [4-(4-chlorobenzoyl)pyridine] | 108 °C
COc1ccc(C=C2N=C(c3ccccc3)OC2=O)cc1 [4-(4-methoxybenzylidene)-2-phenyl-1,3-oxazol-5(4H)-one] | 152 °C
CCCN(CCC)S(=O)(=O)c1ccc(C(=O)O)cc1 [4-(Dipropylsulfamoyl)benzoic acid] | 195 °C

SMILES | melting point
O=C(OCc1ccccc1)c1ccc(B(O)O)cc1 [4-(benzyloxycarbonyl)benzeneboronic acid] | 190 °C
OB(O)c1ccc(N(Cc2ccccc2)Cc2ccccc2)cc1 [4-(dibenzylamino)benzeneboronic acid] | 186 °C
Nc1ccc(C(F)(F)F)cc1 [4-(trifluoromethyl)aniline] | 7 °C
O=Cc1ccc(C(F)(F)F)cc1 [4-(trifluoromethyl)benzaldehyde] [listing 1 of 2 here] | 1.5 °C
O=Cc1ccc(C(F)(F)F)cc1 [4-(trifluoromethyl)benzaldehyde] [listing 2 of 2 here] | 2 °C
Nc1ccc(Br)cc1 [4-Bromoaniline] | 64 °C
Cc1cc(O)ccc1Cl [4-Chloro-3-methylphenol] | 67 °C
Oc1ccc(Cl)cc1 [4-Chlorophenol] | 44 °C
Cc1ccc(N)c([N+](=O)[O-])c1 [4-Methyl-2-nitroaniline] | 117 °C
Cc1ccc(N)c(N)c1 [4-Methylbenzene-1,2-diamine] | 89.5 °C
Nc1ccc([N+](=O)[O-])cc1 [4-Nitroaniline] | 148 °C
CN(CCCC(=O)c1cccnc1)N=O [4-[Methyl(nitroso)amino]-1-(pyridin-3-yl)butan-1-one] | 72 °C
Nc1ccc(-c2ccccc2)cc1 [4-aminobiphenyl] | 54 °C
c1ccc(CC2CCNCC2)cc1 [4-benzylpiperidine] | 7 °C
Cc1cc(Cl)ccc1O [4-chloro-2-methylphenol] | 47 °C
Nc1ccc(Cl)cc1[N+](=O)[O-] [4-chloro-2-nitroaniline] [listing 1 of 2 here] | 118 °C
Nc1ccc(Cl)cc1[N+](=O)[O-] [4-chloro-2-nitroaniline] [listing 2 of 2 here] | 116 °C
Cc1cc(O)ccc1Cl [4-chloro-3-methylphenol] | 67 °C
Nc1ccc(Cl)cc1 [4-chloroaniline] | 70 °C
OB(O)c1ccc(Cl)cc1 [4-chlorobenzeneboronic acid] | 273 °C
O=C(Cl)CCCCl [4-chlorobutyryl chloride] | -49 °C
CC(C)(c1ccccc1)c1ccc(O)cc1 [4-cumylphenol] | 72 °C

Results, then the molecule that gave them:

melting point | SMILES
30 °C | CCOC(=O)c1ccc(N=C=O)cc1 [4-(ethoxycarbonyl)phenyl isocyanate]
223 °C | COC(=O)c1ccc(B(O)O)cc1 [4-(methoxycarbonyl)benzeneboronic acid]
159 °C | CNc1ccc(C(=O)O)cc1 [4-(methylamino)benzoic acid]
200 °C | CS(=O)(=O)c1ccc(B(O)O)cc1 [4-(methylsulfonyl)benzeneboronic acid]
87 °C | O=C(O)Cc1ccc(OC(F)(F)F)cc1 [4-(trifluoromethoxy)phenylacetic acid]
240 °C | OB(O)c1ccc(C(F)(F)F)cc1 [4-(trifluoromethyl)benzeneboronic acid]
-4 °C | C=CCc1ccc(OC)c(OC)c1 [4-Allyl-1,2-dimethoxybenzene]
196 °C | Cc1noc(NS(=O)(=O)c2ccc(N)cc2)c1C [4-Amino-N-(3,4-dimethyl-1,2-oxazol-5-yl)benzenesulfonamide]
253 °C | O=C(O)c1ccc(Br)cc1 [4-Bromobenzoic acid]
46 °C | O=Cc1ccc(Cl)cc1 [4-Chlorobenzaldehyde]
101 °C | ON=Cc1ccc(Cl)cc1 [4-Chlorobenzaldoxime]
107 °C | Oc1ccc(Cl)c(O)c1 [4-Chlorobenzene-1,3-diol]
69.8 °C | CCCCCCCc1ccc(C(=O)O)cc1 [4-Heptylbenzoic acid]
82 °C | COc1cc(C=O)ccc1O [4-Hydroxy-3-methoxybenzaldehyde]
-50 °C | CC(=O)CC(C)(C)O [4-Hydroxy-4-methylpentan-2-one]
61 °C | Nc1ccc(I)cc1 [4-Iodoaniline]
184 °C | COc1ccc(C(=O)O)cc1 [4-Methoxybenzoic acid]
31 °C | Cc1ccc(S)c(S)c1 [4-Methylbenzene-1,2-dithiol]
50 °C | Cc1ccc(C(=O)c2ccccc2)cc1 [4-Methylbenzophenone]
78 °C | CC(=O)Oc1ccc([N+](=O)[O-])cc1 [4-Nitrophenyl acetate]
80 °C | O=[N+]([O-])c1ccc(OCCN2CCOCC2)cc1 [4-[2-(4-nitrophenoxy)ethyl]morpholine]
68 °C | COc1ccccc1N1CCN(CCCC(=O)c2ccc(F)cc2)CC1 [4-[4-(o-Methoxyphenyl)-1-piperazinyl]-p-fluorobutyrophenone]
200 °C | O=[N+]([O-])c1ccc(N=Nc2ccc(O)cc2O)cc1 [4-[(4-Nitrophenyl)diazenyl]benzene-1,3-diol]
64 °C | CCCCCCCC(=O)Oc1ccc(/N=N/c2ccc(CCCC)cc2)cc1 [4-[(E)-(4-butylphenyl)diazenyl]phenyl octanoate]

melting point | SMILES
260 °C | CC(=O)Nc1ccc(C(=O)O)cc1 [4-acetamidobenzoic acid]
104 °C | CC(=O)c1cnn(-c2ccccc2)c1C [4-acetyl-5-methyl-1-phenyl-1h-pyrazole]
79 °C | CC(=O)c1ccc(N=C=S)cc1 [4-acetylphenyl isothiocyanate]
308 °C | Nc1nc(O)nc2c1cnn2CCO [4-amino-1-(2-hydroxyethyl)-1H-pyrazolo[3,4-d]pyrimidin-6-ol]
255 °C | N#Cc1cncnc1N [4-aminopyrimidine-5-carbonitrile]
24 °C | C=Cc1ccc(N)cc1 [4-aminostyrene]
86 °C | c1ccc(Cc2ccc(-c3ccccc3)cc2)cc1 [4-benzylbiphenyl]
34 °C | Fc1cc(OCc2ccccc2)ccc1Br [4-benzyloxy-1-bromo-2-fluorobenzene]
167 °C | O=C(O)c1ccc(OCc2ccccc2)cc1F [4-benzyloxy-2-fluorobenzoic acid]
46 °C | OCc1ccc(-c2ccccc2)cc1 [4-biphenylmethanol]
45 °C | Cc1cc(Br)ccc1N=C=S [4-bromo-2-methylphenyl isothiocyanate]
55 °C | CN(C)c1ccc(Br)cc1 [4-bromo-n,n-dimethylaniline]
192 °C | NC(=O)c1ccc(Br)cc1 [4-bromobenzamide]
157 °C | Oc1ccc(Cl)cc1-c1cc[nH]n1 [4-chloro-2-(1h-pyrazol-3-yl)phenol]
60 °C | Cc1cc(O)c(C(C)C)cc1Cl [4-chloro-2-isopropyl-5-methylphenol]
147 °C | COc1cc(Cl)ccc1C(=O)O [4-chloro-2-methoxybenzoic acid]
194 °C | Cc1cc(Cl)ccc1B(O)O [4-chloro-2-methylbenzeneboronic acid]
103 °C | Nc1ccc(Cl)c([N+](=O)[O-])c1 [4-chloro-3-nitroaniline]
183 °C | O=C(O)c1ccc(Cl)c([N+](=O)[O-])c1 [4-chloro-3-nitrobenzoic acid]
178 °C | NC(=O)c1ccc(Cl)cc1 [4-chlorobenzamide]
146 °C | NS(=O)(=O)c1ccc(Cl)cc1 [4-chlorobenzenesulfonamide]
106 °C | O=C(O)Cc1ccc(Cl)cc1 [4-chlorophenylacetic acid]
8 °C | Cc1ccc(Cl)cc1 [4-chlorotoluene]
80 °C | CC(C)CCC[C@@H](C)[C@H]1CC[C@H]2[C@@H]3CCC4=CC(=O)CC[C@]4(C)[C@H]3CC[C@]12C [4-cholesten-3-one]
